Blank lines part the entries; values can stand above or below the compound they belong to. The source made the active and inactive calls. No cut-off for these calls is given here.
How the values were obtained:
[1] = target: 5-hydroxytryptamine receptor 7 (Mus musculus) (UniProt P32304); assay: Agonist activity at 5-HT7 receptor in embryonic day 15 C57BL/6 mouse cortex assessed as increase in neurite length at 20 nM after 30 mins by DAPI staining based microscopy relative to control; type: tissue-based
5-hydroxytryptamine receptor 7 (Mus musculus), sequence (P32304 whole entry): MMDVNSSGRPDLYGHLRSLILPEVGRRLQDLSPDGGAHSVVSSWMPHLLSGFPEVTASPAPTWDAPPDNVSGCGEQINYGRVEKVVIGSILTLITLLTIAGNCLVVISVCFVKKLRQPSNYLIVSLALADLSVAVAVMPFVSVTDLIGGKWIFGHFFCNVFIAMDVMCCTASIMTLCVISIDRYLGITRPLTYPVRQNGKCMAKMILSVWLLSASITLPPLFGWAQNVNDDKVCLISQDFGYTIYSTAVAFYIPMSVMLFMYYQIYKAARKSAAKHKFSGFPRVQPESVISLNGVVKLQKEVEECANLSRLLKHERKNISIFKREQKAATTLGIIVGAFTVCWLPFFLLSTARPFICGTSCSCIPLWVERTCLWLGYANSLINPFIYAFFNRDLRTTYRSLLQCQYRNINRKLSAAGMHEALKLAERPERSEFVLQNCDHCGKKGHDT

[2] = target: T1, 5-hydroxytryptamine receptor 1A (Homo sapiens, UniProt P08908); assay: Displacement of [3H]-8-OH-DPAT from human 5-HT1A receptor expressed in HEK293 cell membranes after 1 hr by microbeta counting analysis
T1 sequence (P08908 whole entry): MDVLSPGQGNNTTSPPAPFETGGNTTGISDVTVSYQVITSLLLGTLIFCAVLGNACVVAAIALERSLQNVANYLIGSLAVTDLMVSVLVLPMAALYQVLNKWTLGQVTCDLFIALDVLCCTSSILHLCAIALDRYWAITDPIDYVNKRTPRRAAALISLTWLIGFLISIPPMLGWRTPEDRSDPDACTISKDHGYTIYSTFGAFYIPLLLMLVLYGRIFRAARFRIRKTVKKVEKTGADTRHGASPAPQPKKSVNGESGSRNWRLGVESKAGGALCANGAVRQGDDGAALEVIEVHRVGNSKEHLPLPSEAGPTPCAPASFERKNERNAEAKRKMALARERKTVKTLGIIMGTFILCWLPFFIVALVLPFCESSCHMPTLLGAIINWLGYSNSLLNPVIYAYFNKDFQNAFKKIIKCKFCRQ

[3] = Drug uptake in CD-1 mouse plasma at 10 mg/kg, ip administered as single dose measured up to 4 hrs by LC/MS analysis; type: ADME, organism-based; details: in vivo
[4] = Elimination half life in CD-1 mouse plasma at 10 mg/kg, ip administered as single dose by LC/MS analysis; type: ADME, organism-based; details: read-out: beta t1/2 (converted)
[5] = Half life in mouse liver microsomes in presence of NADPH by liquid chromatographic method; type: ADME; details: microsomes
[6] = Elimination half life in CD-1 mouse brain at 10 mg/kg, ip administered as single dose by LC/MS analysis; type: ADME, organism-based; details: read-out: beta t1/2 (converted)
[7] = Cmax in CD-1 mouse brain at 10 mg/kg, ip administered as single dose after 30 mins by LC/MS analysis; type: ADME, organism-based; set-up: dose 10 mg/kg, route intraperitoneal
[8] = Cmax in CD-1 mouse plasma at 10 mg/kg, ip administered as single dose after 30 mins by LC/MS analysis; type: ADME, organism-based; set-up: dose 10 mg/kg, route intraperitoneal
[9] = target: T2, 5-hydroxytryptamine receptor 6 (Homo sapiens, UniProt P50406); assay: Displacement of [3H]-LSD from human 5-HT6 receptor expressed in HEK293 cell membranes after 1 hr by microbeta counting analysis
T2 sequence (P50406 whole entry): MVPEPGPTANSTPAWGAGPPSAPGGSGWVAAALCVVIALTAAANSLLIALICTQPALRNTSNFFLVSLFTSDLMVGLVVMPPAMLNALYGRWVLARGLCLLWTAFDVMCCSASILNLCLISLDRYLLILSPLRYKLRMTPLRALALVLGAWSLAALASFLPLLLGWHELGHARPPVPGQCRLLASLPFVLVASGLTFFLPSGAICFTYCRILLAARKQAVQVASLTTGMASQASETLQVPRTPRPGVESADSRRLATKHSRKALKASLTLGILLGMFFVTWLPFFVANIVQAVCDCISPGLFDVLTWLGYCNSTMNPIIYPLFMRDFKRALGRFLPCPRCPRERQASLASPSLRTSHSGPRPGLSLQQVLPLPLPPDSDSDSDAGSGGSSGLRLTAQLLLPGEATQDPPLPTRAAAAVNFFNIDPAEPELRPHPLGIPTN

[10] = target: 5-hydroxytryptamine receptor 7 (Mus musculus) (UniProt P32304); assay: Agonist activity at 5-HT7 receptor in embryonic day 15 C57BL/6 mouse cortex assessed as increase in neurite length at 20 nM up to 24 hrs by DAPI staining based microscopy; type: tissue-based
[11] = target: 5-hydroxytryptamine receptor 7 (Mus musculus) (UniProt P32304); assay: Agonist activity at 5-HT7 receptor in embryonic day 15 C57BL/6 mouse striatum assessed as increase in neurite length at 20 nM up to 4 hrs by DAPI staining based microscopy relative to control
[12] = target: 5-hydroxytryptamine receptor 7 (Homo sapiens, UniProt P34969); assay: Displacement of [3H]-5-CT from human 5-HT7b receptor expressed in HEK293 cell membranes after 1 hr by microbeta counting analysis
5-hydroxytryptamine receptor 7, sequence (P34969 whole entry): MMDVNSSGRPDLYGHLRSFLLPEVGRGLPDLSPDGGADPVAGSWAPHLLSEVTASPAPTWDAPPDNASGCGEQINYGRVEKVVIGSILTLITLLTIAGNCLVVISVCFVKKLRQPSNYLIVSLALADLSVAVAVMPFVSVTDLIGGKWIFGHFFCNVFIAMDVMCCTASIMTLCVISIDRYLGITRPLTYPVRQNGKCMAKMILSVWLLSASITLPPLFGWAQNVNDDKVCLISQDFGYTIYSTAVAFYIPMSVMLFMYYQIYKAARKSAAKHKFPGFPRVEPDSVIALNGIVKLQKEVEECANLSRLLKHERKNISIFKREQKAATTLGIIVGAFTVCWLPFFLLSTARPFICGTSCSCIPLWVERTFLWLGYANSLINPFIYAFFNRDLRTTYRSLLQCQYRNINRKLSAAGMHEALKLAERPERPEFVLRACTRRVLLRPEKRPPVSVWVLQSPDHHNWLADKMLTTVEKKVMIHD

[13] = Displacement of [3H]-prazosin from adrenergic alpha 1 receptor in pig brain cortical membranes after 50 mins by microbeta counting analysis; type: ADME, cell membranes, Sus scrofa
[14] = target: 5-hydroxytryptamine receptor 7 (Mus musculus) (UniProt P32304); assay: Agonist activity at 5-HT7 receptor in embryonic day 15 C57BL/6 mouse striatum assessed as increase in neurite length at 20 nM after 30 mins by DAPI staining based microscopy relative to control
[15] = Ratio of drug uptake in CD-1 mouse brain to plasma at 10 mg/kg, ip administered as single dose by LC/MS analysis; type: ADME, organism-based; details: read-out: BPR
[16] = Retention factor, logKw of compound in MeOH/0.01 M phosphate buffer at pH 7.4 by RP-HPLC method; type: physicochemical
D(2) dopamine receptor [17] = target: T3, D(2) dopamine receptor (Homo sapiens, UniProt P14416); assay: Displacement of [3H]raclopride from human dopamine D2L receptor expressed in HEK293 cell membranes after 1 hr by microbeta counting analysis; type: cell-based
T3 sequence (P14416 whole entry): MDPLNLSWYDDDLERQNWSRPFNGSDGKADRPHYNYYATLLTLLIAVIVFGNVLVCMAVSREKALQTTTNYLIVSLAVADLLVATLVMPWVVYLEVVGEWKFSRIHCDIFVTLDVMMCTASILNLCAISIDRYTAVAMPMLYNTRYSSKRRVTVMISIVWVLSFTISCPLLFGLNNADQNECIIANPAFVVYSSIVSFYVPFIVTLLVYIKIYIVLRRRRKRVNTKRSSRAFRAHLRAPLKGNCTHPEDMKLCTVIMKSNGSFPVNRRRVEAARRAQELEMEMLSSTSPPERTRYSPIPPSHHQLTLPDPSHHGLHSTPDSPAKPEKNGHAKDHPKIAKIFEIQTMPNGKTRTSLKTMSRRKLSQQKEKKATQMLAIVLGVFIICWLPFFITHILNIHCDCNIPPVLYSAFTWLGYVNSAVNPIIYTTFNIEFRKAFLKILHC

[18] = Stability in mouse liver microsomes assessed as oxidative metabolism by measuring drug recovery at 10 uM preincubated for 10 mins followed by NADPH addition measured after 30 mins by liquid chromatographic method; type: ADME
[19] = target: T2, 5-hydroxytryptamine receptor 6; assay: Displacement of [3H]-LSD from human 5-HT6 receptor after […] by cell based assay
D(2) dopamine receptor [20] = target: T3, D(2) dopamine receptor; assay: Binding affinity to dopamine D2 receptor (unknown origin)
[21] = Half life in ip dosed mouse; details: in vivo

Activity [1]: 130% | Ki [2]: 771 nM | Drug uptake [3]: Active | half-life [4]: 1.07 h | t1/2 [5]: 0.75 h | half-life [6]: 1.02 h | Cmax [7]: 515 ng/mL | Cmax [8]: 1170 ng/mL | Ki [9]: 614 nM | Activity [10]: Active | Activity [11]: 126% | Ki [12]: 25.5 nM | Ki [13]: 6.6 nM | Activity [14]: 124% | Kp [15]: 0.5 | logKw [16]: 0.52 | Ki (D(2) dopamine receptor [17]): 522 nM | Drug recovery ([18]; microsomes, 0.5 h, 10 µM): 27%
Compound: COc1ccc(-c2cc(F)ccc2N2CCN(CCCCCC(=O)NCc3ccc(C#N)cc3)CC2)cc1

Ki [19]: 1570 nM | Ki (D(2) dopamine receptor [20]): 242 nM | logKw [16]: 0.58 | remaining at 0.5 h, 10 µM ([18]; liver microsomes, read-out: Drug recovery): 20%
Compound: N#Cc1ccc(CNC(=O)CCCCCN2CCN(c3ccccc3-c3ccccc3)CC2)cc1

half-life [21]: 4.4 h
Compound: O=C1CCc2ccc(OCCCCN3CCN(c4cccc(Cl)c4Cl)CC3)cc2N1 [ARIPIPRAZOLE]
